# Biological target: BRAF^V600E protein (Homo sapiens, UniProt P15056, V600E)
# Assay: HiBiT cellular BRAF V600E degradation assay
# Assay type: cell-based
# Details: 24 h incubation; for DC50: A375.10 cells (HiBiT tag knocked in at N-terminal of BRAF V600E), concentration at which 50% of total cellular BRAF V600E is degraded; for Emax: A375.10 cells, Emax = amount of residual protein remaining in the cell after compound treatment, read-out: HiBit 24 h Emax
# Sequence of BRAF^V600E protein (P15056 whole entry V600E): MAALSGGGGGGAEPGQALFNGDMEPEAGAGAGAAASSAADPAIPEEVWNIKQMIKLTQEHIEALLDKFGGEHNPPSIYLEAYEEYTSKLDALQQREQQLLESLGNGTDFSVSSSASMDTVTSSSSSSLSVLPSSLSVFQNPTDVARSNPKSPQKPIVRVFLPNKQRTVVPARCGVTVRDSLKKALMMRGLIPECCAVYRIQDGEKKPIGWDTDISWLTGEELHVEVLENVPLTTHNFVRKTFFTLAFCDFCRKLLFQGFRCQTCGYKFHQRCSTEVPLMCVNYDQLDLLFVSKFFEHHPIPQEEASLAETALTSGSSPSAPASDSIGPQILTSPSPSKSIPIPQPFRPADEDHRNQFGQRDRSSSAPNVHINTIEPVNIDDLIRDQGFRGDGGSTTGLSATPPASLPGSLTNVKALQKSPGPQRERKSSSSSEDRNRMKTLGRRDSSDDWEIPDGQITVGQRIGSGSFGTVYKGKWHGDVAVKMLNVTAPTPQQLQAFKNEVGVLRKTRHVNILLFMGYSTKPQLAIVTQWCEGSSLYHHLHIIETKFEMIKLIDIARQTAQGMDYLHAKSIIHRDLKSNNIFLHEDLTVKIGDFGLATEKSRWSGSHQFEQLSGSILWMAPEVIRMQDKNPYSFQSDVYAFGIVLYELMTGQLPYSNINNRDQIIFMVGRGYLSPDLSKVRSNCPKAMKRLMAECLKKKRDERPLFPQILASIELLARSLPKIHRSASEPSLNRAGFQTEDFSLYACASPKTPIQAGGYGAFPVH
DC50 [nM],Emax [%],SMILES
9.73,12.9,"CCN(C)S(=O)(=O)Nc1ccc(F)c(C(=O)c2c[nH]c3ncc(-c4cnc(N5CC[C@H](C(=O)N6CCC(c7ccc(NC8CCC(=O)NC8=O)cc7)CC6)C5)nc4)cc23)c1F (stereo partly drawn) [Example 130, 5-[2-[(3S)-3-[4-[4-[(2,6-dioxo-3-piperidyl)amino]phenyl]piperidine-1-carbonyl]pyrrolidin-1-yl]pyrimidin-5-yl]-3-[3-[[ethyl(methyl)sulfamoyl]amino]-2,6-difluoro-benzoyl]-1H-pyrrolo[2,3-b]pyridine]"
27.1,21.2,"CCN(C)S(=O)(=O)Nc1ccc(F)c(C(=O)c2c[nH]c3ncc(-c4cnc(N5CC[C@@H](CC(=O)N6CCC(c7ccc(NC8CCC(=O)NC8=O)cc7)CC6)C5)nc4)cc23)c1F (stereo partly drawn) [Example 131, 5-[2-[(3S)-3-[2-[4-[4-[(2,6-dioxo-3-piperidyl)amino]phenyl]-1-piperidyl]-2-oxo-ethyl]pyrrolidin-1-yl]pyrimidin-5-yl]-3-[3-[[ethyl(methyl)sulfamoyl]amino]-2,6-difluoro-benzoyl]-1H-pyrrolo[2,3-b]pyridine]"
18.2,12,"CCN(C)S(=O)(=O)Nc1ccc(F)c(C(=O)c2c[nH]c3ncc(-c4cnc(N5CC6(CC(C(=O)N7CCC(c8ccc(NC9CCC(=O)NC9=O)cc8)CC7)C6)C5)nc4)cc23)c1F (stereo not drawn) [Example 132, 5-[2-[6-[4-[4-[(2,6-dioxo-3-piperidyl)amino]phenyl]piperidine-1-carbonyl]-2-azaspiro[3.3]heptan-2-yl]pyrimidin-5-yl]-3-[3-[[ethyl(methyl)sulfamoyl]amino]-2,6-difluoro-benzoyl]-1H-pyrrolo[2,3-b]pyridine]"
4.04,11.5,"CCN(C)S(=O)(=O)Nc1ccc(F)c(C(=O)c2c[nH]c3ncc(-c4ccc(N5CCN(CCN6CCC(c7ccc(NC8CCC(=O)NC8=O)cc7)CC6)CC5)nc4)cc23)c1F (stereo not drawn) [Example 143, 5-[6-[4-[2-[4-[4-[(2,6-dioxo-3-piperidyl)amino]phenyl]-1-piperidyl]ethyl]piperazin-1-yl]-3-pyridyl]-3-[3-[[ethyl(methyl)sulfamoyl]amino]-2,6-difluoro-benzoyl]-1H-pyrrolo[2,3-b]pyridine]"
14.4,9.32,"CCN(C)S(=O)(=O)Nc1ccc(F)c(C(=O)c2c[nH]c3ncc(-c4cnc(N5CCN(CCN6CCC(c7ccc(NC8CCC(=O)NC8=O)cc7)CC6=O)CC5)nc4)cc23)c1F (stereo not drawn) [Example 146, 5-[2-[4-[2-[4-[4-[(2,6-dioxo-3-piperidyl)amino]phenyl]-2-oxo-1-piperidyl]ethyl]piperazin-1-yl]pyrimidin-5-yl]-3-[3-[[ethyl(methyl)sulfamoyl]amino]-2,6-difluoro-benzoyl]-1H-pyrrolo[2,3-b]pyridine]"
9.25,10.6,"CCN(C)S(=O)(=O)Nc1ccc(F)c(C(=O)c2c[nH]c3ncc(-c4cnc(N5CCC(O)(CCN6CCC(c7ccc(NC8CCC(=O)NC8=O)cc7)CC6)CC5)nc4)cc23)c1F (stereo not drawn) [Example 149, 5-[2-[4-[2-[4-[4-[(2,6-dioxo-3-piperidyl)amino]phenyl]-1-piperidyl]ethyl]-4-hydroxy-1-piperidyl]pyrimidin-5-yl]-3-[3-[[ethyl(methyl)sulfamoyl]amino]-2,6-difluoro-benzoyl]-1H-pyrrolo[2,3-b]pyridine]"
1.85,6.38,"CCN(C)S(=O)(=O)Nc1ccc(F)c(C(=O)c2c[nH]c3ncc(-c4cnc(N5CC6(CC(N7CCC(c8ccc(NC9CCC(=O)NC9=O)cc8)CC7)C6)C5)nc4)cc23)c1F (stereo not drawn) [Example 151, 5-[2-[6-[4-[4-[(2,6-dioxo-3-piperidyl)amino]phenyl]-1-piperidyl]-2-azaspiro[3.3]heptan-2-yl]pyrimidin-5-yl]-3-[3-[[ethyl(methyl)sulfamoyl]amino]-2,6-difluoro-benzoyl]-1H-pyrrolo[2,3-b]pyridine]"

# Second part, the compound before the results:
SMILES,DC50 [nM],Emax [%]
"CCN(C)S(=O)(=O)Nc1ccc(F)c(C(=O)c2c[nH]c3ncc(-c4cnc(N5CC6(CC(CC(=O)N7CCC(c8ccc(NC9CCC(=O)NC9=O)cc8)CC7)C6)C5)nc4)cc23)c1F (stereo not drawn) [Example 133, 5-[2-[6-[2-[4-[4-[(2,6-dioxo-3-piperidyl)amino]phenyl]-1-piperidyl]-2-oxo-ethyl]-2-azaspiro[3.3]heptan-2-yl]pyrimidin-5-yl]-3-[3-[[ethyl(methyl)sulfamoyl]amino]-2,6-difluoro-benzoyl]-1H-pyrrolo[2,3-b]pyridine]",14.7,11.4
"CCN(C)S(=O)(=O)Nc1ccc(F)c(C(=O)c2c[nH]c3ncc(-c4cnc(N5CCC(CC(=O)NC6CCN(c7ccc(NC8CCC(=O)NC8=O)cc7F)CC6)CC5)nc4)cc23)c1F (stereo not drawn) [Example 134, N-[1-[4-[(2,6-dioxo-3-piperidyl)amino]-2-fluoro-phenyl]-4-piperidyl]-2-[1-[5-[3-[3-[[ethyl(methyl)sulfamoyl]amino]-2,6-difluoro-benzoyl]-1H-pyrrolo[2,3-b]pyridin-5-yl]pyrimidin-2-yl]-4-piperidyl]acetamide]",18.9,11
"CCN(C)S(=O)(=O)Nc1ccc(F)c(C(=O)c2c[nH]c3ncc(-c4cnc(N5CCC(NC(=O)C6CCN(c7ccc(NC8CCC(=O)NC8=O)cc7F)CC6)CC5)nc4)cc23)c1F (stereo not drawn) [Example 136, 1-[4-[(2,6-dioxo-3-piperidyl)amino]-2-fluoro-phenyl]-N-[1-[5-[3-[3-[[ethyl(methyl)sulfamoyl]amino]-2,6-difluoro-benzoyl]-1H-pyrrolo[2,3-b]pyridin-5-yl]pyrimidin-2-yl]-4-piperidyl]piperidine-4-carboxamide]",3.26,7.37
"CCN(C)S(=O)(=O)Nc1ccc(F)c(C(=O)c2c[nH]c3ncc(-c4cnc(N5CCN(C(=O)NC6CCN(c7ccc(NC8CCC(=O)NC8=O)cc7F)CC6)CC5)nc4)cc23)c1F (stereo not drawn) [Example 138, N-[1-[4-[(2,6-dioxo-3-piperidyl)amino]-2-fluoro-phenyl]-4-piperidyl]-4-[5-[3-[3-[[ethyl(methyl)sulfamoyl]amino]-2,6-difluoro-benzoyl]-1H-pyrrolo[2,3-b]pyridin-5-yl]pyrimidin-2-yl]piperazine-1-carboxamide]",10.5,7.71
"CCN(C)S(=O)(=O)Nc1ccc(F)c(C(=O)c2c[nH]c3ncc(-c4ccc(N5CCN(C(=O)NC6CCN(c7ccc(NC8CCC(=O)NC8=O)cc7F)CC6)CC5)nc4)cc23)c1F (stereo not drawn) [Example 140, N-[1-[4-[(2,6-dioxo-3-piperidyl)amino]-2-fluoro-phenyl]-4-piperidyl]-4-[5-[3-[3-[[ethyl(methyl)sulfamoyl]amino]-2,6-difluoro-benzoyl]-1H-pyrrolo[2,3-b]pyridin-5-yl]-2-pyridyl]piperazine-1-carboxamide]",15.2,8.77
"CCN(C)S(=O)(=O)Nc1cccc(C(=O)c2c[nH]c3ncc(-c4cnc(N5CCN(C(=O)NC6CCN(c7ccc(NC8CCC(=O)NC8=O)cc7F)CC6)CC5)nc4)cc23)c1F (stereo not drawn) [Example 141, N-[1-[4-[(2,6-dioxo-3-piperidyl)amino]-2-fluoro-phenyl]-4-piperidyl]-4-[5-[3-[3-[[ethyl(methyl)sulfamoyl]amino]-2-fluoro-benzoyl]-1H-pyrrolo[2,3-b]pyridin-5-yl]pyrimidin-2-yl]piperazine-1-carboxamide]",2.84,7.91
"CCN(C)S(=O)(=O)Nc1ccc(F)c(C(=O)c2c[nH]c3ncc(-c4ccc(N5CCN(CCN6CCC(c7ccc(OC8CCC(=O)NC8=O)cc7)CC6)CC5)nc4)cc23)c1F (stereo not drawn) [Example 144, 5-[6-[4-[2-[4-[4-[(2,6-dioxo-3-piperidyl)oxy]phenyl]-1-piperidyl]ethyl]piperazin-1-yl]-3-pyridyl]-3-[3-[[ethyl(methyl)sulfamoyl]amino]-2,6-difluoro-benzoyl]-1H-pyrrolo[2,3-b]pyridine]",16.1,15.6
"CCN(C)S(=O)(=O)Nc1ccc(F)c(C(=O)c2c[nH]c3ncc(-c4ccc(N5CCN(CCN6CCC(c7ccc(OC8CCC(=O)NC8=O)cc7)CC6)C(=O)C5)nc4)cc23)c1F (stereo not drawn) [Example 147, 5-[6-[4-[2-[4-[4-[(2,6-dioxo-3-piperidyl)oxy]phenyl]-1-piperidyl]ethyl]-3-oxo-piperazin-1-yl]-3-pyridyl]-3-[3-[[ethyl(methyl)sulfamoyl]amino]-2,6-difluoro-benzoyl]-1H-pyrrolo[2,3-b]pyridine]",17.2,14.6
"CCN(C)S(=O)(=O)Nc1ccc(F)c(C(=O)c2c[nH]c3ncc(-c4ccc(N5CCN(CCC6CCN(c7ccc(NC8CCC(=O)NC8=O)cc7)CC6)C(=O)C5)nc4)cc23)c1F (stereo not drawn) [Example 148, 5-[6-[4-[2-[1-[4-[(2,6-dioxo-3-piperidyl)amino]phenyl]-4-piperidyl]ethyl]-3-oxo-piperazin-1-yl]-3-pyridyl]-3-[3-[[ethyl(methyl)sulfamoyl]amino]-2,6-difluoro-benzoyl]-1H-pyrrolo[2,3-b]pyridine]",19.8,13.9
"CCN(C)S(=O)(=O)Nc1ccc(F)c(C(=O)c2c[nH]c3ncc(-c4cnc(N5CCc6c(CN7CCC(c8ccc(NC9CCC(=O)NC9=O)cc8)CC7)cccc6C5)nc4)cc23)c1F (stereo not drawn) [Example 150, 5-[[4-[4-[(2,6-dioxo-3-piperidyl)amino]phenyl]-1-piperidyl]methyl]-2-[5-[3-[3-[[ethyl(methyl)sulfamoyl]amino]-2,6-difluoro-benzoyl]-1H-pyrrolo[2,3-b]pyridin-5-yl]pyrimidin-2-yl]-3,4-dihydro-1H-isoquinoline]",32.8,13.3
"CCN(C)S(=O)(=O)Nc1ccc(F)c(C(=O)c2c[nH]c3ncc(-c4cnc(N5CCC(n6cc7c(n6)CCN(c6ccc(NC8CCC(=O)NC8=O)cc6)C7)CC5)nc4)cc23)c1F (stereo not drawn) [Example 152, 5-[4-[(2,6-dioxo-3-piperidyl)amino]phenyl]-2-[1-[5-[3-[3-[[ethyl(methyl)sulfamoyl]amino]-2,6-difluoro-benzoyl]-1H-pyrrolo[2,3-b]pyridin-5-yl]pyrimidin-2-yl]-4-piperidyl]-6,7-dihydro-4H-pyrazolo[4,3-c]pyridine]",16.6,11.9
